Experimental data: PubChem BioAssay (NCI)
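Where inhibition never reached the appropriate level, the endpoint shown equals the highest concentration tested. Otherwise, values were interpolated linearly from a five-concentration, 48-hour dose response in 96-well plates. At the TGI there is no net growth.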

Assays:
Experiment in all cases: NCI tumour cell line growth inhibition, 48 h
[1] = test system: 786-0 renal
[2] = test system: A498 renal
[3] = test system: ACHN renal
[4] = test system: CCRF-CEM leukemia
[5] = test system: DLD-1 colon
[6] = test system: DMS 114 small cell lung
[7] = test system: EKVX NSCLC
[8] = test system: HCC-2998 colon
[9] = test system: HCT-116 colon
[10] = test system: HCT-15 colon
[11] = test system: HOP-62 NSCLC
[12] = test system: HT29 colon
[13] = test system: K-562 leukemia
[14] = test system: KM12 colon
[15] = test system: KM20L2 colon
[16] = test system: LOX IMVI melanoma
[17] = test system: M14 melanoma
[18] = test system: MALME-3M melanoma
[19] = test system: MOLT-4 leukemia
[20] = test system: NCI-H23 lung
[21] = test system: NCI-H460 lung
[22] = test system: NCI-H522 lung
[23] = test system: OVCAR-3 ovarian
[24] = test system: OVCAR-4 ovarian
[25] = test system: OVCAR-5 ovarian
[26] = test system: OVCAR-8 ovarian
[27] = test system: RPMI-8226 leukemia
[28] = test system: RXF 393 renal
[29] = test system: SF-268 CNS
[30] = test system: SF-295 CNS
[31] = test system: SF-539 CNS
[32] = test system: SK-MEL-28 melanoma
[33] = test system: SK-OV-3 ovarian
[34] = test system: SN12C renal
[35] = test system: SNB-19 CNS
[36] = test system: SNB-75 CNS
[37] = test system: SNB-78 CNS
[38] = test system: SR leukemia
[39] = test system: TK-10 renal
[40] = test system: U251 CNS
[41] = test system: UACC-257 melanoma
[42] = test system: UACC-62 melanoma
[43] = test system: UO-31 renal
[44] = test system: XF 498 CNS
[45] = test system: HL-60(TB) leukemia
[46] = test system: LXFL 529 NSCLC
[47] = test system: M19-MEL melanoma
[48] = test system: SK-MEL-2 melanoma
[49] = test system: A549 NSCLC
[50] = test system: BT-549 breast
[51] = test system: CAKI-1 renal
[52] = test system: COLO 205 colon
[53] = test system: DU-145 prostate
[54] = test system: HOP-92 NSCLC
[55] = test system: HS 578T breast
[56] = test system: IGROV1 ovarian
[57] = test system: MCF7 breast
[58] = test system: MDA-MB-231 breast
[59] = test system: MDA-MB-435
[60] = test system: MDA-N
[61] = test system: NCI-H226 lung
[62] = test system: NCI/ADR-RES ovarian
[63] = test system: PC-3 prostate
[64] = test system: SK-MEL-5 melanoma
[65] = test system: SW-620 colon
[66] = test system: T-47D breast

In the case of Cc1cc2nc3c(C(OC4OC(CO)C(O)C(O)C4O)C(O)CO)nn(-c4ccccc4)c3nc2cc1C (stereo not drawn), the TGI [1] is reported as greater than 100 µM, the TGI [2] is reported as greater than 100 µM and the TGI [3] is reported as greater than 100 µM. For the same compound, the TGI [4] was greater than 100 µM, the TGI [5] was greater than 100 µM and the TGI [6] was greater than 100 µM. It also gave a TGI [7] greater than 100 µM, a TGI [8] greater than 100 µM and a TGI [9] greater than 100 µM. It also gave a TGI [10] greater than 100 µM, a TGI [11] greater than 100 µM and a TGI [12] greater than 100 µM. The TGI [13] was greater than 100 µM, the TGI [14] was greater than 100 µM and the TGI [15] was greater than 100 µM. For the same compound, the TGI [16] was greater than 100 µM, the TGI [17] was greater than 100 µM and the TGI [18] was greater than 100 µM. The TGI [19] was greater than 100 µM, the TGI [20] was greater than 100 µM and the TGI [21] was greater than 100 µM. For the same compound, the TGI [22] was greater than 100 µM, the TGI [23] was greater than 100 µM and the TGI [24] was greater than 100 µM. The TGI [25] was greater than 100 µM, the TGI [26] was greater than 100 µM and the TGI [27] was greater than 100 µM. The TGI [28] was greater than 100 µM, the TGI [29] was greater than 100 µM and the TGI [30] was greater than 100 µM. For the same compound, the TGI [31] was greater than 100 µM, the TGI [32] was greater than 100 µM and the TGI [33] was greater than 100 µM. It also gave a TGI [34] greater than 100 µM, a TGI [35] greater than 100 µM and a TGI [36] greater than 100 µM. It also gave a TGI [37] greater than 100 µM, a TGI [38] greater than 100 µM and a TGI [39] greater than 100 µM. For the same compound, the TGI [40] was greater than 100 µM, the TGI [41] was greater than 100 µM and the TGI [42] was greater than 100 µM. The TGI [43] was greater than 100 µM and the TGI [44] was greater than 100 µM.
With COS(=O)c1cc(Cl)cc(Cl)c1O (stereo not drawn) the TGI [2] was greater than 100 µM, the TGI [3] was greater than 100 µM and the TGI [4] was greater than 100 µM. It also gave a TGI [5] greater than 100 µM, a TGI [6] greater than 100 µM and a TGI [7] greater than 100 µM. The TGI [8] was greater than 100 µM, the TGI [9] was greater than 100 µM and the TGI [45] was greater than 100 µM. It also gave a TGI [11] greater than 100 µM, a TGI [12] greater than 100 µM and a TGI [13] greater than 100 µM. The TGI [14] was greater than 100 µM, the TGI [16] was greater than 100 µM and the TGI [46] was greater than 100 µM. For the same compound, the TGI [17] was greater than 100 µM, the TGI [47] was greater than 100 µM and the TGI [18] was greater than 100 µM. For the same compound, the TGI [19] was greater than 100 µM, the TGI [20] was greater than 100 µM and the TGI [21] was greater than 100 µM. For the same compound, the TGI [22] was 36.3 µM, the TGI [23] was greater than 100 µM and the TGI [24] was greater than 100 µM. For the same compound, the TGI [25] was greater than 100 µM, the TGI [28] was greater than 100 µM and the TGI [29] was greater than 100 µM. For the same compound, the TGI [31] was greater than 100 µM, the TGI [48] was greater than 100 µM and the TGI [32] was greater than 100 µM. For the same compound, the TGI [33] was greater than 100 µM, the TGI [34] was greater than 100 µM and the TGI [35] was greater than 100 µM. It also gave a TGI [36] greater than 100 µM, a TGI [38] greater than 100 µM and a TGI [39] greater than 100 µM. It also gave a TGI [40] greater than 100 µM, a TGI [41] greater than 100 µM and a TGI [42] greater than 100 µM. The TGI [43] was greater than 100 µM and the TGI [44] was greater than 100 µM.
Compound CCCCCCCCCCCCCCCCCCOCC(O)COP(=O)(O)OCC1OC(n2cc(F)c(=O)[nH]c2=O)CC1O (stereo not drawn) has a TGI [1] of 17.8 µM, a TGI [2] greater than 56 µM and a TGI [49] of 25.9 µM. It also gave a TGI [3] greater than 41.6 µM, a TGI [50] of 27.3 µM and a TGI [51] of 26.8 µM. For the same compound, the TGI [4] was 16.5 µM, the TGI [52] was 21.9 µM and the TGI [53] was 23.5 µM. It also gave a TGI [7] greater than 74.2 µM, a TGI [8] of 2.92 µM and a TGI [9] of 19.6 µM. It also gave a TGI [10] of 23.7 µM, a TGI [45] of 25.1 µM and a TGI [11] of 4.88 µM. For the same compound, the TGI [54] was 24.2 µM, the TGI [55] was 23.5 µM and the TGI [12] was 23.6 µM. It also gave a TGI [56] of 26.8 µM, a TGI [13] of 32.1 µM and a TGI [14] of 51 µM. The TGI [16] was 15.1 µM, the TGI [17] was 15.5 µM and the TGI [18] was 33.9 µM. It also gave a TGI [57] of 48.3 µM, a TGI [58] of 36.1 µM and a TGI [59] greater than 52.1 µM. For the same compound, the TGI [60] was 28.2 µM, the TGI [19] was 21.6 µM and the TGI [61] was greater than 53.8 µM. It also gave a TGI [20] of 16.9 µM, a TGI [21] of 21.1 µM and a TGI [22] of 27.9 µM. For the same compound, the TGI [62] was 22 µM, the TGI [23] was 46.7 µM and the TGI [24] was 32.2 µM. It also gave a TGI [25] of 26.3 µM, a TGI [26] of 18.9 µM and a TGI [63] of 18.8 µM. For the same compound, the TGI [27] was 22.5 µM, the TGI [28] was 29 µM and the TGI [29] was 36.5 µM. It also gave a TGI [30] of 19 µM, a TGI [31] of 12.4 µM and a TGI [48] of 43.2 µM. The TGI [32] was 28.8 µM, the TGI [64] was 24.1 µM and the TGI [33] was 44.8 µM. The TGI [34] was 27.9 µM, the TGI [35] was 25.3 µM and the TGI [36] was 27.8 µM. For the same compound, the TGI [38] was 22.6 µM, the TGI [65] was greater than 61.4 µM and the TGI [66] was 38.8 µM. The TGI [39] was 24.6 µM, the TGI [40] was 22.4 µM and the TGI [41] was 32.1 µM. The TGI [42] was 9.7 µM and the TGI [43] was 19.6 µM.
With O=C1C=CC(=O)c2ncccc21 the TGI [1] was 7.61 µM, the TGI [2] was 27.4 µM and the TGI [49] was 28.8 µM. It also gave a TGI [3] of 7.98 µM, a TGI [50] of 15.5 µM and a TGI [51] of 4.02 µM. The TGI [4] was 3.29 µM, the TGI [52] was 7.64 µM and the TGI [53] was 20.4 µM. For the same compound, the TGI [7] was 9.86 µM, the TGI [8] was 21 µM and the TGI [9] was 4.27 µM. For the same compound, the TGI [10] was 5.72 µM, the TGI [45] was 2.02 µM and the TGI [11] was 28.6 µM. It also gave a TGI [54] of 3.25 µM, a TGI [55] of 56.4 µM and a TGI [12] of 16.7 µM. The TGI [56] was 17.6 µM, the TGI [13] was greater than 24.7 µM and the TGI [14] was 25.5 µM. The TGI [16] was 6.32 µM, the TGI [17] was 13.1 µM and the TGI [18] was 9.78 µM. For the same compound, the TGI [57] was 25.8 µM, the TGI [58] was 8.06 µM and the TGI [59] was 18.5 µM. It also gave a TGI [60] of 16.1 µM, a TGI [19] greater than 24.1 µM and a TGI [61] of 32.4 µM. The TGI [20] was 23.6 µM, the TGI [21] was 17.5 µM and the TGI [22] was 3.44 µM. It also gave a TGI [62] of 36.1 µM, a TGI [23] of 4.13 µM and a TGI [24] of 11.4 µM. For the same compound, the TGI [25] was 32.2 µM, the TGI [26] was 26.5 µM and the TGI [63] was 22.3 µM. It also gave a TGI [27] greater than 22 µM, a TGI [28] of 12.8 µM and a TGI [29] of 27.1 µM. The TGI [30] was 23.1 µM, the TGI [31] was 22.6 µM and the TGI [48] was 28.2 µM. For the same compound, the TGI [32] was 11.2 µM, the TGI [64] was 18 µM and the TGI [33] was 37.2 µM. For the same compound, the TGI [34] was 16 µM, the TGI [35] was 19.1 µM and the TGI [36] was 17.2 µM. It also gave a TGI [38] of 5.88 µM, a TGI [65] of 4.62 µM and a TGI [66] of 5.18 µM. It also gave a TGI [39] of 17.4 µM, a TGI [40] of 17 µM and a TGI [41] of 11.2 µM. The TGI [42] was 9.3 µM and the TGI [43] was 9.03 µM.
